Tests used:
5-HT1B receptor [1] = target: T1, 5-HT1B receptor (Mus musculus, UniProt P28334); assay: competitive radioligand binding, mouse frontal cortex membranes, reference antagonist measured in the same laboratory
T1 construct: gene Htr1b; native receptor in mouse frontal cortex membranes

5-HT1B receptor [2] = target: T1, 5-HT1B receptor; assay: competitive radioligand binding, mouse frontal cortex membranes
5-HT1A receptor = target: T2, 5-HT1A receptor (Mus musculus, UniProt Q64264); assay: competitive radioligand binding ([3H]-8-OH-DPAT displacement), mouse frontal cortex membranes
T2 construct: gene Htr1a; native receptor in mouse frontal cortex membranes
T2 sequence (Q64264 1-421): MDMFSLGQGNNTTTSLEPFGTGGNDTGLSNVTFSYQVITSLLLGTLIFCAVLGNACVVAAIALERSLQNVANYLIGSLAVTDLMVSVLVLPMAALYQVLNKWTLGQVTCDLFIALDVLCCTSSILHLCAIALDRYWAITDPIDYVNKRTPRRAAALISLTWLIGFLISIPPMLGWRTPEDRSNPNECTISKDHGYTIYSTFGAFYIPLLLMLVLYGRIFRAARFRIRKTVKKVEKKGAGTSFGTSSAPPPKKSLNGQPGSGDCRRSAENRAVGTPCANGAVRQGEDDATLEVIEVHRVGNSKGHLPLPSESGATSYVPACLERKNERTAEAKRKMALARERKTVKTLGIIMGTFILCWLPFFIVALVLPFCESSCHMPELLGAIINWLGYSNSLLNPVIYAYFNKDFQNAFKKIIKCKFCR

T1 sequence (P28334 whole entry): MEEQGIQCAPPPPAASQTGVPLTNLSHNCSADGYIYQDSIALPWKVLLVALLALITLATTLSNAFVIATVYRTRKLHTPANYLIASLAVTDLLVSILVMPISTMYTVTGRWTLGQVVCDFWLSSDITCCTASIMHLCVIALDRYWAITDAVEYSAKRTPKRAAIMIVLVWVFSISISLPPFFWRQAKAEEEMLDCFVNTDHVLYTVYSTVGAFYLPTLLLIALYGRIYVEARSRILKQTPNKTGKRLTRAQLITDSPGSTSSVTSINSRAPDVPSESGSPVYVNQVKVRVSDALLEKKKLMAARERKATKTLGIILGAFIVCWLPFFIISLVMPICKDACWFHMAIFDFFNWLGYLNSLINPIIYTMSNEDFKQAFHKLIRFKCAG

Structure (SMILES)	Ki (5-HT1B receptor [1]) [nM]	Ki (5-HT1B receptor [2]) [nM]	Ki (5-HT1A receptor) [nM]
COc1ccc(NC(=O)c2ccc(-c3ccc(-c4noc(C)n4)cc3C)cc2)cc1N1CCN(C)CC1 [GR-127935]	1.29		
COc1cccc(/C=N/N(C(=O)C(F)(F)F)c2ccc(C)cc2C)c1 [J147]		612	0.42

From PMC7360862, “Sub-Acute Treatment of Curcumin Derivative J147 Ameliorates Depression-Like Behavior Through 5-HT1A-Mediated cAMP Signaling” (Frontiers in Neuroscience, 2020)
